From publication PMC6021035, “Insights into biological activity of ureidoamides with primaquine and amino acid moieties” (Journal of Enzyme Inhibition and Medicinal Chemistry, 2018)
In brackets after ≈: the same amount, converted by molar mass. Read-outs that look alike come from different tables or passages of the source.

Legend:
[1] = In vitro haemolytic activity; type: cell-based; conditions: male, 4% human erythrocytes, read-out: Haemolysis (%); for hemolysis at 1 h, 50 µg/ml: pH 7, 50 μg/ml; for hemolysis at 1 h, 100 µg/ml: pH 7, 100 μg/ml; for hemolysis at 1 h, 200 µg/ml: pH 7, 200 μg/ml
Protocol: Then, 4% (v/v) of fresh human erythrocyte solution (hErc) was prepared using a PBS pH 7.0 solution. A series of diluted compounds from 200 to 50 µg/ml were prepared in a total volume of 1 ml with hErc solution. […] Absorbance of the supernatant (200 µl) was recorded at 540 nm using an iEMS microplate reader. The 0.1% (v/v) solution of Triton X100 served as a positive control (as total lysis of hErc), and intact hErc served as a negative control. […] All tests were performed in triplicate and the results were expressed as haemolysis percentage (mean ± SD). Percentage of haemolysis was calculated using the following equation: haemolysis %=Asample-Anc/Apc-Anc×100 where Asample was absorbance of the tested compound, Anc was absorbance of the negative control (intact hErc) and Apc was absorbance of the positive control treated with 0.1% TritonX100. In statistical calculations, p values below 0.05 were considered significant throughout the test. For comparison of mean values, one-way ANOVA with Dunnet’s post-test was used.

[2] = target: T1, soybean lipoxygenase (LOX) (Glycine max, UniProt P08170); assay: In vitro soybean lipoxygenase (LOX) inhibition; type: biochemical; conditions: for IC50: sodium linoleate 0.1 mM, read-out: LOX inhibition (IC50 μM) ± SD
T1 construct: purchased Sigma-Aldrich
T1 sequence (P08170 1-839): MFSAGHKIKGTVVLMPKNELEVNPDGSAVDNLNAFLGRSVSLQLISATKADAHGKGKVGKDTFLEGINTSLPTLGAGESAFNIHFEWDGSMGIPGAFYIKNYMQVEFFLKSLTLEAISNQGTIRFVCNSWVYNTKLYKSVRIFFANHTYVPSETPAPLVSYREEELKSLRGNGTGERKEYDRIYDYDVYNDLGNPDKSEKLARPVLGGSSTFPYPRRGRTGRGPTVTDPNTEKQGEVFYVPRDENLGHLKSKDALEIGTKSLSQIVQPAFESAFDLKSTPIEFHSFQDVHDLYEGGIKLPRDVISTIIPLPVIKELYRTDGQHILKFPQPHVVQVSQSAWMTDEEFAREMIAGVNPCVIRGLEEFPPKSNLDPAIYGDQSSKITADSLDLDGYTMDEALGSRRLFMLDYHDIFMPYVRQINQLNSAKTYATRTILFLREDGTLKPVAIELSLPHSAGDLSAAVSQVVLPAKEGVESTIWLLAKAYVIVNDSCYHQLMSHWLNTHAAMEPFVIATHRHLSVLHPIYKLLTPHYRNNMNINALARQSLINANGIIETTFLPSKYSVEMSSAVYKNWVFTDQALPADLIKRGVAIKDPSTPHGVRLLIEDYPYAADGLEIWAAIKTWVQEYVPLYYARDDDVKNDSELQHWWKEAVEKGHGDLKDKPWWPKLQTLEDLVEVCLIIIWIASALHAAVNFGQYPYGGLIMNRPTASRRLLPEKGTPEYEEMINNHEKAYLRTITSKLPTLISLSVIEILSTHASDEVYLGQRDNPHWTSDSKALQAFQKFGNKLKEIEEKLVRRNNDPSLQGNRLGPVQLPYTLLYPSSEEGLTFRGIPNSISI
Protocol: In vitro LOX inhibition assay was accomplished as described previously. Test compounds (stock solutions 10 mM in DMSO) were incubated at room temperature with sodium linoleate (0.1 mM) and 0.2 ml of LOX solution (0.1 mg in 10 ml saline). Conversion of sodium linoleate to 13-hydroperoxylinoleic acid was measured at 234 nm and compared to the reference inhibitor. Several concentrations were used for IC50 determination.

[3] = tested on: Issatchenkia orientalis Kudrjanzev ATCC 6258; assay: MIC determination (broth micro-dilution); type: cell-based; conditions: Pichia kudriavzevii, ATCC6258
Protocol: (§1) Before analysis, compounds 5a–f were dissolved in 96% ethanol in a concentration of 2 mg/ml as stock solutions. Inoculums were prepared with fresh cultures of microbial strains, cultured on tryptic-soy agar or Sabouraud 2% (m/v) dextrose agar for 18 h (48–72 h for fungi) at 30 °C with physiological saline containing approximately […]. Inoculum density (0.5 McFarland units) was adjusted with a bio Mériex (France) densitometer. Minimum inhibitory concentration (MIC) was determined by the twofold micro-dilution method in Mu¨ller–Hinton broth for bacterial strains and RPMI 1640 + 2% m/v dextrose for fungi according to the EUCAST recommendations in a sterile 96-well flat-bottom plastic tissue culture plate. MIC was determined using a linear regression curve after incubation of compounds and reading the optical density at 570 nm using an iEMS microplate reader. […] All tests were performed in triplicate and expressed as the mean.

[4] = tested on: Escherichia coli ATCC 8739; assay: MIC determination (broth micro-dilution); type: cell-based; conditions: ATCC8739
Protocol: as §1

Candida kefyr ATCC 2512 = assay: MIC determination (broth micro-dilution); type: cell-based; conditions: Kluyveromyces marxianus, ATCC2512
Protocol: as §1

[5] = tested on: Aspergillus niger ATCC 16404; assay: MIC determination (broth micro-dilution); type: cell-based; conditions: ATCC16404
Protocol: as §1

[6] = tested on: Staphylococcus aureus ATCC 25923; assay: MIC determination (broth micro-dilution); type: cell-based; conditions: ATCC25923
Protocol: as §1

[7] = tested on: Candida parapsylosis ATCC 22019; assay: MIC determination (broth micro-dilution); type: cell-based; conditions: ATCC22019
Protocol: as §1

[8] = tested on: Burkholderia caepacia ATCC 25416; assay: MIC determination (broth micro-dilution); type: cell-based; conditions: ATCC25416
Protocol: as §1

[9] = tested on: Bacillus cereus ATCC 11778; assay: MIC determination (broth micro-dilution); type: cell-based; conditions: ATCC11778
Protocol: as §1

[10] = tested on: Staphylococcus aureus ATCC 6538; assay: MIC determination (broth micro-dilution); type: cell-based; conditions: ATCC6538
Protocol: as §1

[11] = tested on: Candida albicans ATCC 10231; assay: MIC determination (broth micro-dilution); type: cell-based; conditions: ATCC10231
Protocol: as §1

[12] = tested on: Enterococcus faecalis ATCC 29212; assay: MIC determination (broth micro-dilution); type: cell-based; conditions: ATCC29212
Protocol: as §1

[13] = tested on: Pseudomonas aeruginosa ATCC 27853; assay: MIC determination (broth micro-dilution); type: cell-based; conditions: ATCC27853
Protocol: as §1

[14] = tested on: Pseudomonas aeruginosa ATCC 9027; assay: MIC determination (broth micro-dilution); type: cell-based; conditions: ATCC9027
Protocol: as §1

[15] = tested on: Kocuria rhizophila ATCC 9341; assay: MIC determination (broth micro-dilution); type: cell-based; conditions: ATCC9341
Protocol: as §1

[16] = tested on: Escherichia coli ATCC 10536; assay: MIC determination (broth micro-dilution); type: cell-based; conditions: ATCC10536
Protocol: as §1

[17] = tested on: Candida albicans ATCC 90028; assay: MIC determination (broth micro-dilution); type: cell-based; conditions: ATCC90028
Protocol: as §1

[18] = tested on: Candida krusei ATCC 14243; assay: MIC determination (broth micro-dilution); type: cell-based; conditions: Pichia kudriavzevii, ATCC14243
Protocol: as §1

[19] = 4% (v/v) fresh human erythrocyte suspension

Compound | MIC [3] [mg/L] | MIC [4] [mg/L] | MIC (Candida kefyr ATCC 2512) [mg/L] | MIC [5] [mg/L] | MIC [6] [mg/L] | MIC [7] [mg/L] | MIC [8] [mg/L] | MIC [9] [mg/L] | MIC [10] [mg/L] | MIC [11] [mg/L] | MIC [12] [mg/L] | MIC [13] [mg/L] | MIC [14] [mg/L] | MIC [15] [mg/L] | MIC [16] [mg/L] | MIC [17] [mg/L] | MIC [18] [mg/L] | hemolysis at 1 h, 50 µg/ml [1, 19] [%] | hemolysis at 1 h, 100 µg/ml [1, 19] [%] | hemolysis at 1 h, 200 µg/ml [1, 19] [%] | further results
COc1cc(NC(C)CCCNC(=O)NC(CC(C)C)C(=O)NC(c2ccccc2)c2ccccc2)c2ncccc2c1 (centres unmarked) [Compound 5a, N-(diphenylmethyl)-2-[({4-[(6-methoxyquinolin-8-yl)amino]pentyl}carbamoyl)amino]-4-methylpentanamide] | > 100 | > 100 | > 100 | > 100 | 15 (≈ 25.8 µM) | > 100 | 65 (≈ 112 µM) | 70 (≈ 120 µM) | 12.5 (≈ 21.5 µM) | > 100 | > 100 | 25 (≈ 43 µM) | 60 (≈ 103 µM) | 25 (≈ 43 µM) | > 100 | > 100 | > 100 | 3.14 ± 0.04 | 4.03 ± 0.03 | 4.24 ± 0.07 | LOX inhibition, per cent ([2]; 100 μΜ (footnotes a, c)): 40.0 ± 1.0^a^,^c per cent
COc1cc(NC(C)CCCNC(=O)NC(C(=O)NC(c2ccccc2)c2ccc(Cl)cc2)c2ccc(Cl)cc2)c2ncccc2c1 (centres unmarked) [Compound 5e, 2–(4-chlorophenyl)-N-[(4-chlorophenyl)(phenyl)methyl]-2-[({4-[(6-methoxyquinolin-8-yl)amino]pentyl}carbamoyl)amino]acetamide] | > 100 | 60 (≈ 89.5 µM) | > 100 | > 100 | > 100 | > 100 | > 100 | > 100 | > 100 | > 100 | > 100 | > 100 | > 100 | > 100 | 45 (≈ 67.1 µM) | > 100 | > 100 | 2.78 ± 0.04 | 3.23 ± 0.05 | 3.7 ± 0.08 | IC50 [2]: 56 ± 2.3 µM
COc1cc(NC(C)CCCN)c2ncccc2c1 (centres unmarked) [PQ, 8-[(4-amino-1-methylbutyl)amino]-6-methoxyquinoline, reference compound] | > 100 | 40 (≈ 154 µM) | 40 (≈ 154 µM) | > 100 | 45 (≈ 174 µM) | 25 (≈ 96.4 µM) | 80 (≈ 308 µM) | 70 (≈ 270 µM) | 50 (≈ 193 µM) | 90 (≈ 347 µM) | > 100 | 65 (≈ 251 µM) | 70 (≈ 270 µM) | 50 (≈ 193 µM) | 65 (≈ 251 µM) | > 100 | > 100 |  |  |  | hemolysis at 1 h, 50 µg/ml [1]: 2.08 ± 0.05%; hemolysis at 1 h, 100 µg/ml [1]: 2.53 ± 0.04%; hemolysis at 1 h, 200 µg/ml [1]: 3.12 ± 0.07%

Further lines, with some results ahead:

MIC [3] [mg/L] | MIC [4] [mg/L] | MIC (Candida kefyr ATCC 2512) [mg/L] | MIC [5] [mg/L] | MIC [6] [mg/L] | MIC [7] [mg/L] | MIC [8] [mg/L] | MIC [9] [mg/L] | MIC [10] [mg/L] | MIC [11] [mg/L] | MIC [12] [mg/L] | MIC [13] [mg/L] | MIC [14] [mg/L] | MIC [15] [mg/L] | MIC [16] [mg/L] | MIC [17] [mg/L] | MIC [18] [mg/L] | Compound | hemolysis at 1 h, 50 µg/ml [1, 19] [%] | hemolysis at 1 h, 100 µg/ml [1, 19] [%] | hemolysis at 1 h, 200 µg/ml [1, 19] [%] | further results
> 100 | > 100 | > 100 | > 100 | 65 (≈ 106 µM) | > 100 | > 100 | > 100 | > 100 | > 100 | > 100 | > 100 | > 100 | > 100 | > 100 | > 100 | > 100 | COc1cc(NC(C)CCCNC(=O)NC(C(=O)N(C)C(c2ccccc2)c2ccccc2)c2ccccc2)c2ncccc2c1 (centres unmarked) [Compound 5b, N-(diphenylmethyl)-2-[({4-[(6-methoxyquinolin-8-yl)amino]pentyl}carbamoyl)amino]-N-methyl-2-phenylacetamide] | 3.13 ± 0.05 | 3.94 ± 0.05 | 4.04 ± 0.08 | IC50 [2]: 69 ± 2 µM
> 100 | 60 (≈ 94.3 µM) | > 100 | > 100 | > 100 | > 100 | 70 (≈ 110 µM) | > 100 | > 100 | > 100 | > 100 | 25 (≈ 39.3 µM) | 50 (≈ 78.6 µM) | > 100 | 60 (≈ 94.3 µM) | > 100 | > 100 | COc1cc(NC(C)CCCNC(=O)NC(C(=O)NC(c2ccccc2)c2ccc(Cl)cc2)c2ccccc2)c2ncccc2c1 (centres unmarked) [Compound 5c, N-[(4-chlorophenyl)(phenyl)methyl]-2-[({4-[(6-methoxyquinolin-8-yl)amino]pentyl}carbamoyl)amino]-2-phenylacetamide] | 3.06 ± 0.05 | 4.26 ± 0.07 | 4.89 ± 0.13 | IC50 [2]: 40 ± 1.5 µM
> 100 | 65 (≈ 102 µM) | > 100 | > 100 | 25 (≈ 39.3 µM) | > 100 | > 100 | 50 (≈ 78.6 µM) | 25 (≈ 39.3 µM) | > 100 | > 100 | 50 (≈ 78.6 µM) | 65 (≈ 102 µM) | > 100 | 60 (≈ 94.3 µM) | > 100 | > 100 | COc1cc(NC(C)CCCNC(=O)NC(C(=O)NC(c2ccccc2)c2ccccc2)c2ccc(Cl)cc2)c2ncccc2c1 (centres unmarked) [Compound 5d, 2–(4-chlorophenyl)-N-(diphenylmethyl)-2-[({4-[(6-methoxyquinolin-8-yl)amino]pentyl}carbamoyl)amino]acetamide] | 2.56 ± 0.05 | 2.94 ± 0.04 | 3.07 ± 0.05 | IC50 [2]: 41.5 ± 3.1 µM
